Tests used:
[1] = described by Lucchesi et al. 1968; undesirable side-effect of prior art compound; cited from earlier work
[2] = system: excised hearts perfused by donor dog; experiment: Oxygen consumption of excised hearts perfused with whole blood from a donor dog; format: in vivo; settings: 10 mg./kg. intravenously to 5 donor dogs; value before treatment 3.1 ± 0.2; statistically significant (p<0.01) reduction
Description: In a separate assay, hearts are excised from anesthetized animals and perfused via the aorta at a constant pressure with oxygenated whole blood supplied by a donor dog connected to the heart. Oxygen consumption is calculated and expressed as ml./min./100 g. of the myocardium. The donor dogs are then treated intravenously with the selected dose of the test compound and the mean oxygen consumption value again calculated. The test compound is rated active if it effects a statistically significant reduction in that value.

[3] = system: mongrel dogs; experiment: Myocardial oxygen consumption, left coronary arteries perfused with arterial blood at constant pressure, anesthetized dogs; format: in vivo, dog; settings: 10 mg./kg. intravenously prior to perfusion; 5 dogs; mean control 11.7 ± 1.9; statistically significant (p<0.05) reduction
Description: A group of 5 mongrel dogs is anesthetized and thoractomized by the procedure described in the preceding assay and the left anterior descending and circumflex coronary arteries are cannulated and perfused with arterial blood at a constant pressure. Coronary arterial and venous blood samples are collected and their oxygen content measured. Myocardial oxygen consumption is calculated and expressed as ml./min./100 g. of the left ventricle. the mean control oxygen consumption in these 5 animals is 11.7 ± 1.9.
In a second group of 5 animals, prepared as described above, the selected dose of the test compound is administered intravenously prior to perfusion. The myocardial oxygen consumption is calculated and compared with the corresponding value in the control group. A compound is rated active if it effects a statistically significant reduction in the myocardial oxygen consumption observed in the control group.

[4] = system: mongrel dogs; experiment: Epicardial ST segment elevation (ΣST) after 10-minute coronary artery branch occlusion in anesthetized dogs; format: in vivo, dog; settings: 10 mg./kg. intravenously 15 minutes prior to the second 10-minute occlusion; control ΣST 34.8 ± 4.9 mV
Description: A group of 10 mongrel dogs, weighing 11-19 kg., is anesthetized by the intravenous administration of 30 mg./kg. of pentobarbital sodium and breathing maintained by means of a Harvard respirator. A thoractomy is performed through the fifth left intercostal space; the heart is suspended in a pericardial cradle; a branch of the left anterior descending coronary artery is dissected free and a suture placed under that vessel. Occlusion of that arterial branch is accomplished by passing the free ends of the suture through a short section of polyethylene tubing and pressing the tubing against the vessel while exerting traction on the free ends of the suture. Termination of the occlusion is achieved by releasing the suture and pulling the tube away from the vessel.
The degree of myocardial ischemic injury resulting from occlusion of the artery is determined by the epicardial electrocardiographic method described by Maroko et al., Circulation, 43, 67-82 (1971). […] All surface collateral vessels are ligated and the unipolar electrograms from the six epicardial leads and the Lead II electrocardiogram are recorded on a Grass model 7 polygraph. […]
The reproducibility of the method with respect to the magnitude of ΣST is determined by successive 10-minute occlusions in a group of five dogs. […]

Row | Structure (SMILES) | local anesthetic activity [1] | mean oxygen consumption value [2] | myocardial oxygen consumption [3] | sum of the ST segment elevation in the six epicardial leads (ΣST) [4] [mV]
1 | CC[N+](C)(CC)CC(O)COc1cccc2ccccc12 (stereo not shown) [1-(N,N-diethylamino)-3-(1-naphthoxy)propan-2-ol methiodide] | local anesthetic activity | – | – | –
2 | CC(C)[N+](C)(C)CC(O)COc1cccc2ccccc12 (stereo not shown) [1-(N-isopropyl-N-methylamino)-3-(1-naphthoxy)propan-2-ol methochloride] | – | 2.1 ± 0.1 ml./min./100 g. of the myocard | 7.6 ± 1.1 ml./min./100 g. of the left ve | 11.3 ± 2.1
